Experimental findings from patent publication US7485653B2, “1,4-dihydropyridine compounds, pharmaceutical compositions, and methods for the treatment of cardiovascular disease” (Gilead Sciences, Inc., priority 2003, dated 2009) are described below.

The IC50 is the concentration that gives 50% inhibition.

Each structure is given as a SMILES string.

The test system of test [1] is α-myosin heavy chain (α-MyHC) protein levels. The test is described as follows: α-MyHC cytoblot assay in neonatal rat ventricular myocytes (NRVM). It counts as cell-based. Here is the method:
FIG. 1 Concentration-dependent effect of Compound 1 on αMyHC protein levels in the cytoblot assay. NRVM are cultured for 3 days in serum-free medium in the presence of differing amounts of Compound 1. At the end of the culture period, NRVM are fixed and analyzed for α-MyHC protein levels using the BA-G5 monoclonal antibody specific for α-MyHC. Results are collected as RLU using a Packard Fusion Plate reader, and normalized to the signal from samples cultured in the absence of compound (control, set to 100%).
Preparation and culture of neonatal rat ventricular myocytes (NRVM) was performed by removing hearts from 1-3 day old rat neonatal pups, along with the atria and lungs. The ventricles were cut into smaller pieces and digested 3 times with collagenase for 20-30 min at 37° C. The myocytes were then separated from other cell types using a Percoll gradient. The myocyte layer was collected, washed 2 times, and plated on tissue culture grade 10 cm Petri dishes for 1-2 hrs. The non-adherent cells (myocytes) were removed and plated in Costar clear view 96 well plates coated with 0.2% gelatin for at least 2 hrs. The gelatin solution was removed, and the myocytes were resuspended in DMEM high glucose media (Mediatech) containing 10% charcoal/dextran treated FBS (Hyclone) and 1% Penicillin-Streptomycin-Glutamine (PSG, Gibco). Ten thousand NRVM were plated per well in a 100 μl volume, and incubated overnight at 37° C. in 5% CO2 in air. The following day, the media was replaced with 100 μl of serum-free DMEM high glucose medium supplemented with PSG and 0.3% Nutridoma-SP (Roche).
Compounds were reconstituted in DMSO at 30 mM, and aliquots were stored at −20° C. A 1:1000 dilution was prepared in serum-free DMEM medium supplemented with PSG and 0.3% Nutridoma, and sonicated for 5 min at room temperature. After sonication, additional 3 fold dilutions were prepared in the same medium. Diluted compound was then added to the NRVM cultures in a volume of 100 μl. […]
For the α-MyHC cytoblot assay, NRVM cultures were analyzed for α-MyHC protein levels after 3 days of incubation. […] Excess antibody was removed with 3 PBS washes, and a chemiluminescent substrate was added (Pierce SuperSignal West Pico Chemiluminscent Substrate) for 5 min before quantitation on a Packard Fusion Plate Reader.
As shown above in Table 1, Compound 1 increased α-MyHC protein levels as determined by an α-MyHC cytoblot assay. […] After 3 days of incubation with NRVM, α-MyHC protein levels were detected in the cytoblot assay and quantitated (FIG. 1). […] An increase in α-MyHC protein levels was first detected beginning at 30 nM, with a maximal response observed at 3 μM. […]

For test [2], the system named is Hypertrophy of NRVM (secretion of atrial natriuretic factor). The test is described as follows: Anti-hypertrophic activity in NRVM, ANF ELISA (ANF secretion). It counts as cell-based. The conditions noted are these: Rattus norvegicus, read-out: IC50 of the ANF ELISA (antihypertrophic activity). Here is the method:
Anti-hypertrophic Activity of Racemic Compound 1 and the Purified Enantiomers of Compound 1. Neonatal rat ventricular myocytes (NRVM) were isolated from 1 to 3 day-old Sprague-Dawley rats using enzymatic digestion and myocyte enrichment techniques. NRVM were cultured in serum-containing media for 18 hours. For the continuation of culture, serum-free media was used. Hypertrophy of NRVM was induced using pharmacological stimuli, including phenylephrine, endothelin-1, and […]. Hypertrophic responses were determined using methods including the following: measurement of total cellular protein; secretion of atrial natriuretic factor; determination of cell volume; determination of the expression of so-called fetal genes such as atrial natriuretic factor, beta-myosin heavy chain and alpha-skeletal actin. ANF secretion was the most sensitive assay for measuring hypertrophy, and the IC50 of the ANF ELISA was the measurement used to determine antihypertrophic activity.
On the technique in general: ELISA stands for enzyme-linked immunosorbent assay.

Another test deals with α-MyHC protein levels. The test is described as follows: Western blotting of α-MyHC protein in NRVM. The conditions noted are these: NRVM stimulated 3 days; Compound 1 10 nM to 10 μM. It counts as cell-based, rat. On the procedure: FIG. 2 Effect of Compound 1 on α-MyHC protein levels as detected by Western blotting. NRVM are stimulated with Compound 1 at different concentrations for 3 days. Protein extracts are prepared, proteins are separated by SDS-PAGE electrophoresis, transferred to PVDF membrane, and detected with an anti-α-MyHC monoclonal antibody.
As an independent measure of changes in α-MyHC protein levels, NRVM stimulated with Compound 1 were analyzed for α-MyHC protein levels by Western blotting. Protein extracts prepared from NRVM stimulated with a range of concentrations of Compound 1 from 10 nM to 10 μM were separated by SDS-PAGE and transferred to PVDF membrane. Levels of α-MyHC protein were detected by Western blotting using the same anti-α-MyHC monoclonal antibody used in the cytoblot assay. […] This experiment verified that the changes in α-MyHC protein detected in the cytoblot assay were also evident by Western blotting.
On the technique in general: Immunoblotting shows a protein as a band on a membrane.

In the case of `CC(=O)C1=C(C)NC(SCC(=O)c2cccc([N+](=O)[O-])c2)=C(C#N)C1c1ccccc1Cl` (racemic) [Compound 1], in test [1] (3 days incubation), the “% increase of a-MyHC over baseline at 10 mM Cpd” value is 206%. For the same compound, in test [1] (3 days, tested 3 nM to 30 μM), the “concentration at which an increase in α-MyHC protein levels was first detected” value came to 30 nM and the “concentration of maximal response (α-MyHC protein levels)” value amounted to 3 µM. The EC50 in test [1] (Rattus norvegicus, Ventricular myocyte, 72 h, 3 days, average of six independent experiments, read-out: concentration that gave a half-maximal response (α-MyHC protein levels)) is 60 nM. For the same compound, the IC50 in test [2] was 427 nM. The “α-MyHC protein levels by Western blotting” value with α-MyHC protein levels is reported as “increasing amounts of α-MyHC protein were observed with increasing amounts of Compound 1”.
